Assay: Inhibition of HIV1 3B reverse transcriptase activity infected in human H9 cells assessed as level of p24 antigen

SMILES: CC1(C)O[C@H]2CC(=O)OC[C@]23[C@H]2CC[C@@]4(C)[C@H](c5ccoc5)OC(=O)[C@H]5O[C@]54[C@]2(C)C(=O)C[C@@H]13 [Limonin]
- IC50: 4.48 nM
